Columns and labels:
[1] = target: T1, human CYP11B1 (Homo sapiens, UniProt P15538); test: Inhibition of hCYP11B1 in transfected V79 cells; format: cell-based; conditions: hamster V79 cells expressing human CYP11B1; substrate 11-deoxycortisol 200 nM
T1 construct: expressed in transfected cells
T1 sequence (P15538 25-503): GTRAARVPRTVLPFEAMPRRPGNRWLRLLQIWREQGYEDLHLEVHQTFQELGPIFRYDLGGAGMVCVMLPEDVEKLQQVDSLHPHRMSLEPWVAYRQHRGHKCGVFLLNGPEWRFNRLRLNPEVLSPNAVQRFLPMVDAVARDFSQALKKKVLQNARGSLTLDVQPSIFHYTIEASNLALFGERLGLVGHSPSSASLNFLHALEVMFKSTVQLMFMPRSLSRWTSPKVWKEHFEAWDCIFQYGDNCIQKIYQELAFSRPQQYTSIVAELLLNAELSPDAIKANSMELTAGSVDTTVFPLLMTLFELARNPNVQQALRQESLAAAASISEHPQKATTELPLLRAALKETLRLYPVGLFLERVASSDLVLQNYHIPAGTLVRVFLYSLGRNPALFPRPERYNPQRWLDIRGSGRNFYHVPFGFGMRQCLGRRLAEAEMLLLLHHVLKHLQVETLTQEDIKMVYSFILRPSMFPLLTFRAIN
Method: (§1) Genes of human CYP11B1 and rat NADPH-P450 reductase were transfected into hamster V79 cells using a lentivirus vector, and stably-expressing cell lines were selected by taking advantages of the associated puromycin-resistance gene. Cultured cells were diluted and seeded in a 96-well plate with an amount of approximately 10,000 per well. After pre-incubation with suitable concentrations of the test compounds for 2 hours, 11-deoxycortisol of 200 nM was added as the substrate to initiate the catalytic reaction. After further incubation for 30 minutes, it was quenched with ethyl acetate. Subsequently, the substrate and product(s) were quantified using LC-MS/MS or HPLC at 260 nm, and the IC50 values were calculated according to inhibitory percentage.

[2] = target: T2, human CYP11B2 (Homo sapiens, UniProt P19099); test: Inhibition of hCYP11B2 in transfected V79 cells; format: cell-based; conditions: hamster V79 cells expressing human CYP11B2; substrate 11-deoxycorticosterone 200 nM
T2 construct: expressed in transfected cells
T2 sequence (P19099 25-503): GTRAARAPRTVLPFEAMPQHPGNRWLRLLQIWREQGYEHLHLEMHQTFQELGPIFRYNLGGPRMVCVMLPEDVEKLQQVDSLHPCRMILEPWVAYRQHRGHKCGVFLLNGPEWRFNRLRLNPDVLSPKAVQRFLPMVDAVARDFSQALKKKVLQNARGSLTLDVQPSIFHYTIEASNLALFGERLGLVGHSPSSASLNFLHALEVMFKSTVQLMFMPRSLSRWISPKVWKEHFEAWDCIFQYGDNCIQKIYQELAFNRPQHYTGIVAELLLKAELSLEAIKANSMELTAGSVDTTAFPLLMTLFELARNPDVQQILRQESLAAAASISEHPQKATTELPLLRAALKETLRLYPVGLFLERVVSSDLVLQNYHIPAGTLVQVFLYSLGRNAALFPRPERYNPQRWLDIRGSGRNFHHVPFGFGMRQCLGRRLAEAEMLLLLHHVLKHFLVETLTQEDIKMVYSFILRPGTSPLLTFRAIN
Method: as §1, with “CYP11B2” for “CYP11B1”, “11-deoxycorticosterone” for “11-deoxycortisol”

IC50 [1] [nM]	IC50 [2] [nM]	Structure (SMILES)
1350	216	O=C(c1ccccc1F)N1CCc2c(-c3cc4ccccc4s3)cncc21 [C61, (4-(Benzo[b]thiophen-2-yl)-2,3-dihydro-1H-pyrrolo[2,3-c]pyridin-1-yl)(2-fluorophenyl)methanone]
512	30	O=C(c1ccccc1F)N1CCc2c(-c3ccc4[nH]ccc4c3)cncc21 [C62, (4-(1H-indol-5-yl)-2,3-dihydro-1H-pyrrolo[2,3-c]pyridin-1-yl)(2-fluorophenyl)methanone]
1820	113	O=C(c1ccccc1F)N1CCc2c(-c3ccc4occc4c3)cncc21 [C63, (4-(Benzofuran-5-yl)-2,3-dihydro-1H-pyrrolo[2,3-c]pyridin-1-yl)(2-fluorophenyl)methanone]
258	5.3	Cc1ccccc1CC(=O)N1CCc2c(-c3ccc(C#N)cc3)cncc21 [C64, 4-(1-(2-(o-Tolyl)acetyl)-2,3-dihydro-1H-pyrrolo[2,3-c]pyridin-4-yl)benzonitrile]
292	7.6	N#Cc1ccc(-c2cncc3c2CCN3C(=O)Cc2ccccc2Br)cc1 [C65, 4-(1-(2-(2-Bromophenyl)acetyl)-2,3-dihydro-1H-pyrrolo[2,3-c]pyridin-4-yl)benzonitrile]
277	6.5	N#Cc1ccc(-c2cncc3c2CCN3C(=O)Cc2ccccc2F)cc1 [C67, 4-(1-(2-(2-Fluorophenyl)acetyl)-2,3-dihydro-1H-pyrrolo[2,3-c]pyridin-4-yl)benzonitrile]
108	12	N#Cc1ccc(-c2cncc3c2CCN3C(=O)Cc2ccccc2[N+](=O)[O-])cc1 [C70, 4-(1-(2-(2-Nitrophenyl)acetyl)-2,3-dihydro-1H-pyrrolo[2,3-c]pyridin-4-yl)benzonitrile]
28	2	N#Cc1ccc(-c2cncc3c2CCN3C(=O)Cc2cccc(Cl)c2)cc1 [C71, 4-(1-(2-(3-Chlorophenyl)acetyl)-2,3-dihydro-1H-pyrrolo[2,3-c]pyridin-4-yl)benzonitrile]
2950	46	COc1ccc(C(=O)N2CCc3c(-c4cc5cc(C#N)ccc5o4)cncc32)cc1 [C79, 2-(1-(4-Methoxybenzoyl)-2,3-dihydro-1H-pyrrolo[2,3-c]pyridin-4-yl)benzofuran-5-carbo nitrile]
476	22	O=C(C1CN(Cc2cccc(F)c2)C1)N1CCc2c(-c3cc4cc(Cl)ccc4[nH]3)cncc21 [C80, (4-(5-Chloro-1H-indol-2-yl)-2,3-dihydro-1H-pyrrolo[2,3-c]pyridin-1-yl)(1-(3-fluorobenzyl)azetidin-3-yl)methanone]

Continued, compound first:

Structure (SMILES)	IC50 [1] [nM]	IC50 [2] [nM]
Cc1cccc(CC(=O)N2CCc3c(-c4ccc(C#N)cc4)cncc32)c1 [C66, 4-(1-(2-(m-Tolyl)acetyl)-2,3-dihydro-1H-pyrrolo[2,3-c]pyridin-4-yl)benzonitrile]	92	0.9
COc1cccc(CC(=O)N2CCc3c(-c4ccc(C#N)cc4)cncc32)c1 [C68, 4-(1-(2-(3-Bethoxyphenyl)acetyl)-2,3-dihydro-1H-pyrrolo[2,3-c]pyridin-4-yl)benzonitrile]	26	0.7
N#Cc1ccc(-c2cncc3c2CCN3C(=O)Cc2ccc(F)cc2)cc1 [C69, 4-(1-(2-(4-Fluorophenyl)acetyl)-2,3-dihydro-1H-pyrrolo[2,3-c]pyridin-4-yl)benzonitrile]	134	2.4
Cc1ccc(CC(=O)N2CCc3c(-c4ccc(C#N)cc4)cncc32)cc1 [C72, 4-(1-(2-(p-Tolyl)acetyl)-2,3-dihydro-1H-pyrrolo[2,3-c]pyridin-4-yl)benzonitrile]	51	6.8
N#Cc1ccc(-c2cncc3c2CCN3C(=O)Cc2ccc(Br)cc2)cc1 [C73, 4-(1-(2-(4-Bromophenyl)acetyl)-2,3-dihydro-1H-pyrrolo[2,3-c]pyridin-4-yl)benzonitrile]	124	11
N#Cc1ccc(-c2cncc3c2CCN3C(=O)Cc2cccc(C(F)(F)F)c2)cc1 [C74, 4-(1-(2-(3-(Trifluoromethyl)phenyl)acetyl)-2,3-dihydro-1H-pyrrolo[2,3-c]pyridin-4-yl)benzonitrile]	53	9
N#Cc1ccc(-c2cncc3c2CCN3C(=O)Cc2ccc(C(F)(F)F)cc2)cc1 [C75, 4-(1-(2-(4-(Trifluoromethyl)phenyl)acetyl)-2,3-dihydro-1H-pyrrolo[2,3-c]pyridin-4-yl)benzonitrile]	111	35
COc1ccc(CC(=O)N2CCc3c(-c4ccc(C#N)cc4)cncc32)cc1 [C76, 4-(1-(2-(4-Methoxyphenyl)acetyl)-2,3-dihydro-1H-pyrrolo[2,3-c]pyridin-4-yl)benzonitrile]	62	9
N#Cc1ccc(-c2cncc3c2CCN3C(=O)Cc2ccc(Cl)cc2)cc1 [C77, 4-(1-(2-(4-Chlorophenyl)acetyl)-2,3-dihydro-1H-pyrrolo[2,3-c]pyridin-4-yl)benzonitrile]	376	8
N#Cc1ccc2[nH]c(-c3cncc4c3CCN4C(=O)C3CN(Cc4cccc(F)c4)C3)cc2c1 [C81, 2-(1-(1-(3-Fluorobenzyl)azetidine-3-carbonyl)-2,3-dihydro-1H-pyrrolo[2,3-c]pyridin-4-yl)-1H-indole-5-carbonitrile]	438	15
COc1cccc(C(=O)N2CCc3c(C4=CCN(C#N)CC4)cncc32)c1 [C82, 4-(1-(3-Methoxybenzoyl)-2,3-dihydro-1H-pyrrolo[2,3-c]pyridin-4-yl)-3,6-dihydropyridine-1 (2H)-carbonitrile]	537	3
COc1cccc(C(=O)N2CCc3c(N4CCN(C#N)CC4)cncc32)c1 [C83, 4-(1-(3-Methoxybenzoyl)-2,3-dihydro-1H-pyrrolo[2,3-c]pyridin-4-yl)piperazine-1-carbonitrile]	672	6
N#Cc1ccc(-c2cncc3c2ccn3S(=O)(=O)c2ccc([N+](=O)[O-])cc2)cc1 [E1, 4-(1-((4-Nitrophenyl)sulfonyl)-1H-pyrrolo[2,3-c]pyridin-4-yl)benzonitrile]	0.5	0.5
Cc1ccc(S(=O)(=O)n2ccc3c(-c4ccc(C#N)cc4)cncc32)cc1 [E2, 4-(1-Tosyl-1H-pyrrolo[2,3-c]pyridin-4-yl)benzonitrile]	0.4	0.5
N#Cc1ccc(-c2cncc3c2ccn3S(=O)(=O)c2ccccc2)cc1 [E3, 4-(1-(Phenylsulfonyl)-1H-pyrrolo[2,3-c]pyridin-4-yl)benzonitrile]	0.3	0.4
Cc1cccc(S(=O)(=O)n2ccc3c(-c4ccc(C#N)cc4)cncc32)c1 [E4, 4-(1-(m-Tolylsulfonyl)-1H-pyrrolo[2,3-c]pyridin-4-yl)benzonitrile]	0.3	0.4
N#Cc1ccc(-c2cncc3c2ccn3S(=O)(=O)c2cccc(C(F)(F)F)c2)cc1 [E5, 4-(1-((3-(Trifluoromethyl)phenyl)sulfonyl)-1H-pyrrolo[2,3-c]pyridin-4-yl)benzonitrile]	0.6	0.3
N#Cc1ccc(-c2cncc3c2ccn3S(=O)(=O)c2ccc(F)cc2)cc1 [E6, 4-(1-((4-Fluorophenyl)sulfonyl)-1H-pyrrolo[2,3-c]pyridin-4-yl)benzonitrile]	0.3	0.13
N#Cc1ccc(-c2cncc3c2ccn3S(=O)(=O)c2ccc(C(F)(F)F)cc2)cc1 [E7, 4-(1-((4-(Trifluoromethyl)phenyl)sulfonyl)-1H-pyrrolo[2,3-c]pyridin-4-yl)benzonitrile]	0.2	0.1

Reference: patent US20260092074A1, “Annelated Pyridines as Steroidogenesis Inhibitors, Preparation Method and Use Thereof” (Guangzhou Vinnocent Pharmaceutical Limited, priority 2022, published 2026)
